This passage reports inhibition and IC50 results from ChEMBL document CHEMBL5131499, “Design, synthesis and glycosidase inhibition of C-4 branched LAB and DAB derivatives” (Eur J Med Chem, 2022).

A value given as a limit tells only on which side of the number the result lay.

The species named for one assay is Sus scrofa. In words: Inhibition of porcine kidney alpha-trehalase assessed as release of p-nitrophenol at 1000 uM using p-nitrophenyl glycoside as substrate by spectrometric assay relative to control.
The target of assay [1] is Sucrase-isomaltase, intestinal (Rattus norvegicus, UniProt P23739). In words: Inhibition of rat intestinal sucrase assessed as release of p-nitrophenol using p-nitrophenyl glycoside as substrate by spectrometric assay.
Sucrase-isomaltase, intestinal, sequence (P23739 1-1013 limits assumed): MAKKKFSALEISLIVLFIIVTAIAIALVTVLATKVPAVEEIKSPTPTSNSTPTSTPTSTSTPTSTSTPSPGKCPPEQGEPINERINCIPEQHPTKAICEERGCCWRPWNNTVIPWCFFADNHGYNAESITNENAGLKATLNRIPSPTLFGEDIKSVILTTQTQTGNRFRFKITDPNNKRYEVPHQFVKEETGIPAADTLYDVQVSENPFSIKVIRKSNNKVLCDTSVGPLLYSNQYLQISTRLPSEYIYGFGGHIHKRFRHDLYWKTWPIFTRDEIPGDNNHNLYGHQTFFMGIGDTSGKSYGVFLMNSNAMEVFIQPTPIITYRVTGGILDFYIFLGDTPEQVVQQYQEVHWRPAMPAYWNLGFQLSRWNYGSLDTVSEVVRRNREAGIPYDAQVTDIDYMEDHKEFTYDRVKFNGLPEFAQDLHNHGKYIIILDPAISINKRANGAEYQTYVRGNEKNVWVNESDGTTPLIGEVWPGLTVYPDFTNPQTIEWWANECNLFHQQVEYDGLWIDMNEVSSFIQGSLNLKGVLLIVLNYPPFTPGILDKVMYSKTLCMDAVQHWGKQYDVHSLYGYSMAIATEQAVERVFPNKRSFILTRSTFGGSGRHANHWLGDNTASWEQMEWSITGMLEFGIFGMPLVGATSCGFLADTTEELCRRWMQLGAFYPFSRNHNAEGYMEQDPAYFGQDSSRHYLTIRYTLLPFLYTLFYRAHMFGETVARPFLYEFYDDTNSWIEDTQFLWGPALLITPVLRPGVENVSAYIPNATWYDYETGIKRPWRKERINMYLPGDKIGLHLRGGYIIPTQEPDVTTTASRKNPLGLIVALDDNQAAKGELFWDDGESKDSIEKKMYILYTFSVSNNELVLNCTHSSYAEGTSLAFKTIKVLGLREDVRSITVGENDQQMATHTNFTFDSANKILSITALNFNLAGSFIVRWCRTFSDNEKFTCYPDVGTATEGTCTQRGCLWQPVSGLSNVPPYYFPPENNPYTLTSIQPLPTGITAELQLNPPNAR
Sucrase-isomaltase, intestinal, sequence (P23739 1014-1841 limits assumed): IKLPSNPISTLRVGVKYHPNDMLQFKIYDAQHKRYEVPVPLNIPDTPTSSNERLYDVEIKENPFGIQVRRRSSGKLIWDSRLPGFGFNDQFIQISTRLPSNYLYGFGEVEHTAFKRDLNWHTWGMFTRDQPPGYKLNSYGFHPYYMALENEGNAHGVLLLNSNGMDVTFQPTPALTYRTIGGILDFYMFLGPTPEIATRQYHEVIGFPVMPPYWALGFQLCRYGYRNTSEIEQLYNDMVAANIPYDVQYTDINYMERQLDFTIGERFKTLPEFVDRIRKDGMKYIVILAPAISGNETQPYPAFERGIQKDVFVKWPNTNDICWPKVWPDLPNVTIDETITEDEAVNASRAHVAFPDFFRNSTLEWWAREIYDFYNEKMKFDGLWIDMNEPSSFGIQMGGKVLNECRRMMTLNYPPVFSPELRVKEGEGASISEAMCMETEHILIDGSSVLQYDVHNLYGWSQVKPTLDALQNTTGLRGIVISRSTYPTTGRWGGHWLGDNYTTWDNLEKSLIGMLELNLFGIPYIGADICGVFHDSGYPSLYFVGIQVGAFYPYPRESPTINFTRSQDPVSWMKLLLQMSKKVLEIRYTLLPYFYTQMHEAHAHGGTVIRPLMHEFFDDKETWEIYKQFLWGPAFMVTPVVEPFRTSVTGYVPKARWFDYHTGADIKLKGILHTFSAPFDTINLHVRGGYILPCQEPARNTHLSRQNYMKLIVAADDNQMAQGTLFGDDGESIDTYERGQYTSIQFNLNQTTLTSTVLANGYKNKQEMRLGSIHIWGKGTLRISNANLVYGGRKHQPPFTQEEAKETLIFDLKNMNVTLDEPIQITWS
The species entered for assay [2] is Bos taurus. The assay can be described thus: Inhibition of bovine liver beta-glucronidase assessed as release of p-nitrophenol at 1000 uM using p-nitrophenyl glycoside as substrate by spectrometric assay relative to control.
Assay [3] is filed under the species Bos taurus. The assay can be described thus: Inhibition of bovine liver beta-glucosidase assessed as release of p-nitrophenol at 1000 uM using p-nitrophenyl glycoside as substrate by spectrometric assay relative to control.
In another assay the test system is Prunus dulcis. In words: Inhibition of almond beta-glucosidase assessed as release of p-nitrophenol at 1000 uM using p-nitrophenyl glycoside as substrate by spectrometric assay relative to control.
The species named for assay [4] is Bos taurus. The assay can be described thus: Inhibition of bovine liver beta-galactosidase assessed as release of p-nitrophenol at 1000 uM using p-nitrophenyl glycoside as substrate by spectrometric assay relative to control.
The target of assay [5] is T1, Lysosomal alpha-glucosidase (Homo sapiens, UniProt P10253). The assay can be described thus: Inhibition of human lysosomal alpha glucosidase assessed as release of p-nitrophenol at 1000 uM using p-nitrophenyl glycoside as substrate by spectrometric assay relative to control.
The test system of a further assay is Helix pomatia. The assay can be described thus: Inhibition of snail beta-mannosidase assessed as release of p-nitrophenol at 1000 uM using p-nitrophenyl glycoside as substrate by spectrometric assay relative control.
A further assay has as its system Aspergillus niger. The assay can be described thus: Inhibition of Aspergillus niger amyloglucosidase assessed as release of p-nitrophenol at 1000 uM using p-nitrophenyl glycoside as substrate by spectrometric assay relative to control.
The subject of another assay is Oryza sativa. The assay can be described thus: Inhibition of rice alpha-glucosidase assessed as release of p-nitrophenol at 1000 uM using p-nitrophenyl glycoside as substrate by spectrometric assay relative to control.
Another assay is filed under the species Rattus norvegicus. The assay can be described thus: Inhibition of rat intestinal alpha-trehalase assessed as release of p-nitrophenol at 1000 uM using p-nitrophenyl glycoside as substrate by spectrometric assay relative to control.
The next assay deals with Penicillium decumbens. In words: Inhibition of Penicillium decumbens alpha-L-rhamnosidase assessed as release of p-nitrophenol at 1000 uM using p-nitrophenyl glycoside as substrate by spectrometric assay relative to control.
Assay [6] deals with T2, Tissue alpha-L-fucosidase (Bos taurus) (UniProt Q2KIM0).
T2 sequence (whole entry): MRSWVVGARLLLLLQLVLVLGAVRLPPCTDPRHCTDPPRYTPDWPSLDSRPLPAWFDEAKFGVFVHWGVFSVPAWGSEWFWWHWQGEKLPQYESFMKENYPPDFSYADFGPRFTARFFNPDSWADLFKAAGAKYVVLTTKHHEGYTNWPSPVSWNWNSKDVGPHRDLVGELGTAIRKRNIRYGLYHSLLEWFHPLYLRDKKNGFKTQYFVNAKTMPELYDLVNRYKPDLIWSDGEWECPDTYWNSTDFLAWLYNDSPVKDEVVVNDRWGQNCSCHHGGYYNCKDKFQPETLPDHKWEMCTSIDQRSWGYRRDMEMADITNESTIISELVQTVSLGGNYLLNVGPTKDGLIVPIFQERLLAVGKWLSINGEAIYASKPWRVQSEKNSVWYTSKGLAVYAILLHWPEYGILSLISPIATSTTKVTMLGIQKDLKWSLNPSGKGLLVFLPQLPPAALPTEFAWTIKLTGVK
The assay can be described thus: Inhibition of bovine kidney alpha-L-fucosidase assessed as release of p-nitrophenol at 1000 uM using p-nitrophenyl glycoside as substrate by spectrometric assay relative to control.

The subject of the next assay is Escherichia coli. In words: Inhibition of Escherichia coli beta-glucuronidase assessed as release of p-nitrophenol at 1000 uM using p-nitrophenyl glycoside as substrate by spectrometric assay relative to control.
Assay [7] deals with T3, Alpha-mannosidase (Canavalia ensiformis) (UniProt C0HJB3).
T3 sequence (whole entry): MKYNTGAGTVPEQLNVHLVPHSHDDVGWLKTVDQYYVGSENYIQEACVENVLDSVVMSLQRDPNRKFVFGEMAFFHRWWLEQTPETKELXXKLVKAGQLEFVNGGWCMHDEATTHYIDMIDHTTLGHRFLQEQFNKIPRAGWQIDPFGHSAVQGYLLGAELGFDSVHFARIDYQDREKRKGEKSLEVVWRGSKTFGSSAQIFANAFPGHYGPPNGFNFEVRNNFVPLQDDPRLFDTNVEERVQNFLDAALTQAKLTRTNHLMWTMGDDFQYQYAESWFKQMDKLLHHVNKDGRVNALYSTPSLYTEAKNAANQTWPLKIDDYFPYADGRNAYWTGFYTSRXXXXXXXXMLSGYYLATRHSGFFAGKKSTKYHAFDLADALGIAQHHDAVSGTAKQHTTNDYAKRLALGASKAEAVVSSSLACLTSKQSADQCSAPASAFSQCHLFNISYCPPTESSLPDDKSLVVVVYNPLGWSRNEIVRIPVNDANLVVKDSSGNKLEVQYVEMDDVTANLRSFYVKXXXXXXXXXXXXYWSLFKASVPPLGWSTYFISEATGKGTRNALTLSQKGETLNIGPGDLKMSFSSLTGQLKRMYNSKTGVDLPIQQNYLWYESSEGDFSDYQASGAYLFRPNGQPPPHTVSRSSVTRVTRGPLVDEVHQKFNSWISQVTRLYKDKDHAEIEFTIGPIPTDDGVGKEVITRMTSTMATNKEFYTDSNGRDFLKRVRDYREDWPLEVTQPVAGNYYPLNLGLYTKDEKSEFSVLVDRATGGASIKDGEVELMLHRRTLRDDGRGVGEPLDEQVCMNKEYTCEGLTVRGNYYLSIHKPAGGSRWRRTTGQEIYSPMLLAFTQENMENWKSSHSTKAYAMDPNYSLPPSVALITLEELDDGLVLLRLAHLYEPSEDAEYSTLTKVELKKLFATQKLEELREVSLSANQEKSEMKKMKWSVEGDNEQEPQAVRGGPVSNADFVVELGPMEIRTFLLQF
In words: Inhibition of jack bean alpha-mannosidase assessed as release of p-nitrophenol at 1000 uM using p-nitrophenyl glycoside as substrate by spectrometric assay relative to control.

Assay [8] is described as follows: Inhibition of yeast alpha-glucosidase assessed as release of p-nitrophenol using p-nitrophenyl glycoside as substrate by spectrometric assay. The arrangement: species or system Saccharomyces cerevisiae.
The target in assay [9] is Alpha-galactosidase (Coffea arabica) (UniProt Q42656). In words: Inhibition of coffee beans alpha-galactosidase assessed as release of p-nitrophenol at 1000 uM using p-nitrophenyl glycoside as substrate by spectrometric assay relative to control.
Alpha-galactosidase (Coffea arabica), sequence (Q42656 16-378 limits assumed): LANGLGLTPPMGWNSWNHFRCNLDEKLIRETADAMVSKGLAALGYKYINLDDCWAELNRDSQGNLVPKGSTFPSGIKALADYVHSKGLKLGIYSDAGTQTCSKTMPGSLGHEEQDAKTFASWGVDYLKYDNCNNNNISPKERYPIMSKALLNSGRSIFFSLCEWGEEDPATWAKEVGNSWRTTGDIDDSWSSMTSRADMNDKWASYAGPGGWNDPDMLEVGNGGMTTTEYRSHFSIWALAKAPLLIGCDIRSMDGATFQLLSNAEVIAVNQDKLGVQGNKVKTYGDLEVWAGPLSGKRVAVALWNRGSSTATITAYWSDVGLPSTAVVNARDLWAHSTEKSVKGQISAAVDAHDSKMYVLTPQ
The target in assay [10] is T1, Lysosomal alpha-glucosidase. In words: Inhibition of human lysosomal alpha glucosidase assessed as release of p-nitrophenol using p-nitrophenyl glycoside as substrate by spectrometric assay.
Assay [11] can be described thus: Inhibition of rice alpha-glucosidase assessed as release of p-nitrophenol using p-nitrophenyl glycoside as substrate by spectrometric assay. Further details: species or system Oryza sativa.

By inhibition is commonly meant the drop in the measured response relative to a control, in per cent. The term IC50 denotes the point on the concentration scale where inhibition reaches its midpoint. For `OC[C@]1(c2c(F)c(F)c(F)c(F)c2F)NC[C@H](O)[C@H]1O`, the inhibition in the assay filed under Sus scrofa is 2%; in the assay listed under Bos taurus [2] it was 3.6%; in the assay listed under Bos taurus [3], 3.8%; in the assay with Prunus dulcis it was 4.6%; in the assay listed under Bos taurus [4], 3.7%; in [5] it was 6.9%. The inhibition is 0% in the assay on Helix pomatia; 4.4% in the assay with Aspergillus niger; 0% in the assay with Oryza sativa; 40.2% in the assay listed under Rattus norvegicus; 2% in the assay on Penicillium decumbens; 0% in assay [6]. Further, the inhibition worked out at 2.6% in the assay with Escherichia coli and 6.6% in assay [7]. Further, the results for the IC50 in assay [1] and in assay [8] were 4.1 µM and 528 µM, respectively.

`COc1ccc([C@@]2(CO)NC[C@H](O)[C@H]2O)cc1OC`: the inhibition in the assay listed under Sus scrofa was 0%; in the assay filed under Bos taurus [2], 23.3%; in the assay filed under Bos taurus [3], 15.8%; in the assay with Prunus dulcis, 0%; in the assay listed under Bos taurus [4], 19%; in [5], 27.1%. Further, the inhibition in the assay on Helix pomatia is 0%; with Aspergillus niger it was 6.4%; in the assay on Oryza sativa it was 32.3%; in assay [9], 0%; in the assay filed under Rattus norvegicus, 0%; in the assay on Penicillium decumbens, 0%. The inhibition in [6] worked out at 0.5%; in the assay with Escherichia coli it was 0%; in assay [7], 0%. Moreover, the IC50 in assay [1] was 2.5 µM; in [8], 64 µM.

Take `OC[C@]1(c2ccc(F)cc2)NC[C@H](O)[C@H]1O`: the inhibition was 4% in the assay listed under Sus scrofa; 10.9% in the assay listed under Bos taurus [2]; 0.4% in the assay filed under Bos taurus [3]; 4.6% with Prunus dulcis; 0% in the assay filed under Bos taurus [4]; 8.3% in [5]. Besides, the inhibition in the assay on Helix pomatia was determined as 0%; in the assay on Aspergillus niger it was 0%; in the assay on Oryza sativa it was 6.4%; in [9] it was 0%; in the assay listed under Rattus norvegicus, 27%; in the assay with Penicillium decumbens, 0%. Further, the values for the inhibition (in assay [6]; with Escherichia coli; in assay [7]) were 0%, 3% and 6.6%, respectively. For the same compound, the figures for the IC50 in [1] and in [8] were 2.8 µM and 305 µM, respectively.

Regarding `COc1cccc([C@@]2(CO)NC[C@H](O)[C@H]2O)c1`, the inhibition in the assay filed under Sus scrofa was found to be 3.8%; in the assay filed under Bos taurus [2] it was 8.2%; in the assay listed under Bos taurus [3], 12.8%; with Prunus dulcis, 1.7%; in the assay filed under Bos taurus [4], 26.5%; in assay [5], 46%. Moreover, the inhibition in the assay with Helix pomatia is 0%; in the assay on Aspergillus niger it was 5%; in the assay on Oryza sativa, 47.3%; in assay [9], 1.6%; in the assay filed under Rattus norvegicus, 0.6%; with Penicillium decumbens, 5.5%. Also, the figures for the inhibition (in [6]; with Escherichia coli; in assay [7]) were 1.6%, 0% and 0%, respectively. The values for the IC50 in assay [1] and in assay [8] were 2.2 µM and 19 µM, respectively.

As for `COc1ccc([C@]2(CO)NC[C@@H](O)[C@@H]2O)cc1OC`, the inhibition in the assay filed under Sus scrofa came to 0.8%; in the assay listed under Bos taurus [2], 17.5%; in the assay listed under Bos taurus [3] it was 22.2%; with Prunus dulcis, 0%; in the assay listed under Bos taurus [4], 24.3%; in assay [5], 11.1%. The inhibition is 0% in the assay on Helix pomatia; 0.5% with Aspergillus niger; 11.4% in the assay on Oryza sativa; 0% in assay [9]; 0% in the assay listed under Rattus norvegicus; 0% in the assay with Penicillium decumbens. The inhibition (in assay [6]; in the assay with Escherichia coli; in [7]) was 0% throughout. Moreover, the IC50 was 4.1 µM in [1] and 243 µM in [8].

Take `OC[C@]1(c2cccc(F)c2)NC[C@H](O)[C@H]1O`: the inhibition in the assay filed under Sus scrofa was 8.3%; in the assay listed under Bos taurus [2] it was 19.4%; in the assay listed under Bos taurus [3] it was 11.3%; in the assay with Prunus dulcis, 0%; in the assay listed under Bos taurus [4] it was 16.4%; in the assay with Helix pomatia, 0%. In addition, the inhibition was 1.4% with Aspergillus niger; 10% in the assay listed under Rattus norvegicus; 0% with Penicillium decumbens; 0% in [6]; 0% in the assay on Escherichia coli; 0% in assay [7]. The IC50 worked out at 0.95 µM in [1], 491 µM in [10], 817 µM in assay [11] and 60 µM in assay [8].

As to `Cc1ccc([C@]2(CO)NC[C@@H](O)[C@@H]2O)cc1`, the inhibition in the assay listed under Sus scrofa came out at 0%; in the assay listed under Bos taurus [2], 8.7%; in the assay listed under Bos taurus [3] it was 29.1%; with Prunus dulcis it was 8.7%; in the assay listed under Bos taurus [4], 35%; in assay [5], 21.3%. Moreover, the inhibition with Helix pomatia is 0%; in the assay with Aspergillus niger, 8.3%; in the assay on Oryza sativa, 29.1%; in assay [9], 1.6%; in the assay filed under Rattus norvegicus, 12.9%; with Penicillium decumbens it was 7.4%. In addition, the inhibition (in assay [6]; in the assay on Escherichia coli; in assay [7]) was 0% each time. The IC50 in assay [1] is 3.4 µM; in [8], 212 µM.

As to `OC[C@@]1(c2c(F)c(F)c(F)c(F)c2F)NC[C@@H](O)[C@@H]1O`, the inhibition in the assay filed under Sus scrofa was 0%; in the assay filed under Bos taurus [2], 18.4%; in the assay filed under Bos taurus [3], 33%; in the assay on Prunus dulcis, 5.2%; in the assay filed under Bos taurus [4] it was 38.1%; in assay [5] it was 18.5%. Also, the inhibition in the assay with Helix pomatia stood at 0%; in the assay on Aspergillus niger it was 7.8%; with Oryza sativa, 19.5%; in assay [9], 0%; in the assay filed under Rattus norvegicus it was 14.1%; with Penicillium decumbens, 0%. Besides, the figures for the inhibition (in assay [6]; with Escherichia coli; in assay [7]) were 3.8%, 0% and 0%, respectively. The IC50 in assay [1] worked out at 2.5 µM; in assay [8], 388 µM.

On to `OC[C@@H]1NC[C@H](O)[C@H]1O`, for which the inhibition in the assay listed under Bos taurus [3] and in the assay on Prunus dulcis was less than 50% throughout.
